Entries after “also recorded” stand apart in the source; their conditions may differ.
Tests used:
mice = test: Disease activity index in DSS-induced experimental colitis; type: in vivo
Procedure: Induction of chemical colitis. […] Acute colitis was defined as a 7 day treatment, and chronic colitis as any further treatment including remission periods. Control animals received sterile acidified water only. Symptoms (weight loss, stool consistency, gross bleeding) were recorded daily for calculation of disease activity index (23).
Evaluation of Experimental Colitis. The disease activity index (DAI) is the average combined score of weight loss (0-4), stool consistency (0-4), and bleeding (0-4), used to score clinical symptoms (23).

peripheral blood T-cells = test: Flow cytometry of activated T-cells (CD69, CD44) in peripheral blood, DSS colitis; type: in vivo, mouse; conditions: in response to DSS treatment
From the text: Flow Cytometry. T cell populations were characterized for activation status (CD69 and CD44) and CD4 or CD8α expression using flow cytometry. Erythrocytes were immediately lysed with BD PharmLyse Lysis Buffer (BD Biosciences, San Diego, Calif.). After washing with Stain Buffer with 0.2% BSA (BD), cells were stained with FITC conjugated Hamster Anti-Mouse CD69, FITC conjugated Rat Anti-Mouse/Human CD44, R-PE conjugated Rat Anti-Mouse CD4, PerCP Rat Anti-Mouse CD8α, or appropriate negative isotype controls (BD Biosciences) for 30 min at 4° C. Cells were then washed and analyzed using BD FACScan. Fluorescence intensity was normalized to each respective isotype control antibody and data were analyzed with CellQuest® (BD Biosciences). Dead cells were excluded by gating on forward/side scatter. Marker expression was recorded either as percent positive of the absolute count of total T cells, or by median fluorescence intensity if the control and marker populations overlapped.

peripheral leukocytes [1] = test: Alkaline comet assay with and without hOgg1 incubation, DSS colitis; type: in vivo, mouse
From the text: Blood collection. […] Identical blood samples were used for genotoxic endpoints as well as for cytokine expression.
Alkaline comet assay. […] Frozen blood was further diluted 1:15 in PBS before further preparation.
Determination of oxidative DNA damage. The enzyme hOgg1-modified comet assay was used for determination of oxidative DNA damage (25). […] (New England Biolabs, Ipswich, Mass.).

[2] = literature references; cited from earlier work
erythroblasts = test: In vivo micronucleus assay in Atm−/−, Atm+/− and wildtype mice with DSS colitis; parameters: species or system mouse; conditions: all genotypes, more severe in Atm−/−
Procedure: In vivo micronucleus assay. […] At least 4000 mature erythrocytes were counted per animal, and the frequency of MN formation was calculated as the number of micronucleated erythrocytes per 1000 normochromatic erythrocytes.

peripheral leukocytes [3] = test: γ-H2AX immunofluorescence, DSS colitis; type: in vivo, mouse
From the text: (§1) Immunofluorescence. […] Samples were then processed on coverslips essentially as described elsewhere (26).

peripheral leukocytes [4] = test: 8-oxoguanine and nitrotyrosine immunofluorescence, DSS colitis; type: in vivo, mouse; conditions: DSS 7 days, 3% w/v; p<0.01
From the text: as §1
8-oxoguanine is an oxidative DNA lesion formed by reaction of hydroxyl radicals, metal hyrdroperoxides, or peroxynitrite with DNA, causing G:C to T:A transversions during replication (33). Nitrotyrosine is a biochemical marker for NO-induced peroxynitrite formation involving reactions with reactive oxygen and nitrogen species resulting in nitrative damage to proteins (34).

peripheral leukocytes [5] = conditions: mouse, in vivo
Procedure: Alkaline comet assay. To detect DNA strand breaks, as well as alkali labile sites in DNA, the alkaline comet assay was performed as described elsewhere (4). Frozen blood or single cell suspensions were thawed on ice and further diluted 1:15 in PBS before further sample preparation. After lysis and electrophoresis, gels were stained with SYBR Gold (Molecular Probes) and visualized under a fluorescent microscope (Olympus Ax70, Tokyo, Japan) at 10× magnification. Comet images were captured and analyzed with the CASP image analysis program (http://casp.sourceforge.net). The olive tail moment, which represents both tail length and fraction of DNA in the tail, was used for data collection and analysis, in which apoptotic cells were excluded under previously proposed criteria (4).
Injection of cytokines. Mouse TNF-α (Sigma) and/or mouse IL-1β (Sigma) were injected via the tail vein at 500 ng/mouse and 100 ng/mouse, respectively, dissolved in saline. Control animals received vehicle only. Peripheral blood was collected at 1 hr, 2 hrs, 4 hrs, and 24 hrs after injection for genotoxicity assays.

[6] = tested on: normochromatic erythrocytes; test: Micronucleus assay after cytokine injection; type: in vivo, mouse; conditions: 48 hours post-injection compared to before injection
Procedure: In vivo micronucleus assay. Micronucleus formation was determined in normochromatic erythrocytes as micronucleated normochromatic erythrocytes per 1000 normochromatic erythrocytes as described previously (1, 8).
Injection of cytokines. […] Control animals received vehicle only.

Molecule | Mortality (mice; after three cycles of DSS treatment, wildtype mice) | Start of rectal bleeding (mice; cycle 1 of 3% DSS treatment) | Proportion of activated (CD69+, CD44+) T-cells, Atm−/− vs wildtype mice (peripheral blood T-cells) | Mean olive tail moment (DNA single and double strand breaks, alkali-labile sites) (peripheral leukocytes [1]; DSS treated vs non-treated mice, end of each cycle, p<0.01) | Mean olive tail moment with hOgg1 incubation (oxidative base damage) (peripheral leukocytes [1]; after treatment cycles, treated vs hOgg1 incubated non-treated mice, p<0.05) | Mutagenicity / direct genotoxicity of DSS itself [2] | Micronucleus formation in erythroblasts (toxicity of inflammation) (erythroblasts) | Percentage of cells positive for γ-H2AX nuclear foci (peripheral leukocytes [3]; after the first 7 day acute DSS treatment vs non-treated, p<0.01) | Percentage of cells positive for γ-H2AX nuclear foci (peripheral leukocytes [3]; later cycles until end of treatment vs non-treated, p<0.05) | 8-oxoguanine and nitrotyrosine positive peripheral leukocytes (peripheral leukocytes [4]) | Sufficiency to induce genotoxicity to peripheral leukocytes (peripheral leukocytes [5]) | Time post-injection within which DNA damage was repaired (peripheral leukocytes [5]) | Micronuclei formation in circulating normochromatic erythrocytes [6]
dextran sulfate sodium [DSS] | no mortalities were observed | 4 days | significantly larger proportion of these T-cells are activated | significantly higher olive tail moments at the end of each cycle | higher when incubated with hOgg1 after treatment cycles | not directly genotoxic; also recorded: not a mutagen nor genotoxic | evident as early as after the acute 7 day treatment | increased dramatically | remained elevated over non-treated animals until end of treatment | significant increase in both 8-oxoguanine and nitrotyrosine | – | – | –
TNF-α | – | – | – | – | – | – | – | – | – | – | sufficient to induce genotoxicity | ≤ 24 h | minimally yet significantly elevated
IL-1β: mouse IL-1β (Sigma) injected via the tail vein at 100 ng/mouse (protein, UniProt P10749 118-269, looked up) Interleukin-1 beta: VPIRQLHYRLRDEQQKSLVLSDPYELKALHLNGQNINQQVIFSMSFVQGEPSNDKIPVALGLKGKNLYLSCVMKDGTPTLQLESVDPKQYPKKKMEKRFVFNKIEVKSKVEFESAEFPNWYISTSQAEHKPVFLGNNSGQDIIDFTMESVSS | – | – | – | – | – | – | – | – | – | – | – | ≤ 24 h | –

— patent US8940491B2, “Genotoxicity as a biomarker for inflammation” (The Regents of the University of California, priority 2009, dated 2015)
